Data set [1] concerns Plasmodium falciparum. Put plainly: Antiplasmodial activity against chloroquine-sensitive Plasmodium falciparum 3D7 measured after 72 hrs by SYBR green 1 dye based fluorescence assay. Format: functional, organism-based. The conditions noted are these: 3D7, 72 h.
The subject of data set [2] is Plasmodium falciparum. The data set can be described thus: Antiplasmodial activity against chloroquine-resistant Plasmodium falciparum K1 measured after 72 hrs by SYBR green 1 dye based fluorescence assay. The conditions noted are these: K1, 72 h. It counts as functional, organism-based.
The nature of data set [3]: Cytotoxicity against African green monkey Vero cells assessed as reduction in cell viability after 72 hrs by MTT assay. The settings on record: chlorocebus sabaeus. Format: cell-based. (In general: Tetrazolium dyes change colour on reduction, which living cells bring about.)
Data set [4] in a line: Selectivity index, ratio of CC50 for African green monkey Vero cells to IC50 for chloroquine-sensitive Plasmodium falciparum 3D7. The conditions noted are these: read-out: Ratio CC50/IC50. Format: toxicity.

This passage reports IC50, CC50 and selectivity ratio results from ChEMBL document CHEMBL4130371, “Norepinephrine alkaloids as antiplasmodial agents: Synthesis of syncarpamide and insight into the structure-activity relationships of its analogues as antiplasmodial agents” (Eur J Med Chem, 2017).

As usually defined, the IC50 is the concentration at which inhibition is half-maximal. The term CC50 denotes the concentration at which the toxic effect on the cells reaches its halfway point.

`COc1ccc([C@H](O)CNC(=O)/C=C/c2ccccc2)cc1`: the results for the IC50 in data set [1] and in data set [2] were 6.82 µM and 7.26 µM, respectively.
Take `O=C(/C=C/c1ccccc1)OC[C@@H](OC(=O)/C=C/c1ccccc1)c1ccc2ccccc2c1`: the IC50 in data set [1] and in data set [2] was above 10 µM throughout. For the same molecule, in data set [3], the CC50 at 72 h was above 200 µM. For the same molecule, in data set [4], the selectivity ratio was 20.
For the molecule `COc1ccc([C@@H](O)CNC(=O)/C=C/c2ccccc2)cc1` [AEGELINE], the IC50 in data set [1] and in data set [2] was above 10 µM each time.
As to `COc1cc([C@@H]2c3cc4c(cc3[C@H](O)[C@H]3COC(=O)[C@H]23)OCO4)cc(OC)c1OC` [PODOFILOX], the CC50 at 72 h in data set [3] stood at 5.74 µM.
As to `COc1ccc([C@@H](CNC(=O)CCc2ccccc2)OC(=O)/C=C/c2ccccc2)cc1OC`, the half-inhibitory concentration (IC50) in data set [1] and in data set [2] was above 10 µM throughout. Moreover, the CC50 at 72 h in data set [3] amounted to 44.3 µM. For the same molecule, the selectivity ratio in data set [4] is below 4.43.
In the case of `O=C(/C=C/c1ccccc1)OC[C@H](OC(=O)/C=C/c1ccccc1)c1ccc2ccccc2c1`, the values for the IC50 in data set [1] and in data set [2] were above 10 µM and 2.15 µM, respectively. Also, the CC50 at 72 h in data set [3] came to 181 µM. For the same molecule, in data set [4], the selectivity ratio is below 18.1.
Taken in the same sequence, the figures for `CCCC(=O)O[C@H](CNC(=O)/C=C/c1ccccc1)c1ccc(OC)c(OC)c1` were above 10 µM, above 10 µM, 29.9 µM and below 2.98.
With `CCCC(=O)NC[C@@H](OC(=O)/C=C/c1ccccc1)c1ccc(OC)c(OC)c1`, the IC50 in data set [1] and in data set [2] was above 10 µM in each case. In addition, the CC50 at 72 h in data set [3] turned out to be 42.4 µM. Moreover, in data set [4], the selectivity ratio is below 4.24.
Regarding `COc1ccc([C@@H](CNC(=O)/C=C/c2ccccc2)OC(=O)CCc2ccccc2)cc1OC`, the IC50 in data set [1] and in data set [2] was above 10 µM each time. For the same molecule, the CC50 at 72 h in data set [3] was 36.9 µM. Moreover, the selectivity ratio in data set [4] was below 3.69.
